How the values were obtained:
Format in all cases: in vivo
[1] = Inhibition of the active conditioned avoidance response in rats; conditions: i.p.
Description: The results obtained with the compounds of general formula I during the various experiments employing the method described by Courvoisier et al. in Arch. Int. Pharmacodyn., 1953, 92, p. 305-361 and by Janssen et al. in Arzneim, Forsch, 1965, 15, p.

[2] = Inhibition of isolation-induced aggression in mice; conditions: Mus musculus, ip, read-out: Inhibitory ED50 (effective dose inhibiting 50% of the aggressive animals)
Description: The compounds of general formula I inhibit the attacking behavior of mice rendered aggressive by isolation according to the method described by Yen, Stanger and Millman in Arch. Int. Pharmacodyn. 1959, 123, p. 179-185.

[3] = Inhibition of aggression in isolated and bulbectomized rats
Method: The inhibition of aggression was assessed according to the method described by Vergnes and Karli in C.R. Soc. Biol. 1963, 157, p. 1061. The effect on the aggression is assessed in terms of the percentage of animals which became non-killers after treatment.

[4] = Anxiolytic activity by the four-plates test; conditions: mice; for change in vivo at 5 mg/kg: Mus musculus, ip, i.p., 5 mg.kg^-1, read-out: % increase in the responses (transitions)
Method: The anxiolytic activity of the compounds of the general formula I was investigated in mice according to the method of Aron Simon Larousse and Boissier described in Neuropharmacology (1971) 10 p. 459-469). After treatment of the animals by means of different doses of the compounds of the invention administered intraperitoneally or orally, the increase in the percentage of transitions during the exploration of the base of the test cage, in the presence of electric shocks, was assessed.

[5] = Anxiolytic activity by the Geller-Seifter test; conditions: rats, i.p., p<0.05
Method: The anxiolytic activity of the compounds of the present invention was also assessed in rats with the Geller-Seifter test described by Geller, Kulac and Seifter in Psychopharmacologia, 1962, 3, p. 374-375.
An increase related exclusively to the levels of the punished responses determines the existence of an authentic anxiolytic effect.

[6] = Anxiolytic activity by MacMillan's conflict test; conditions: rats, i.p., 2,5 mg.kg^-1, vs physiological saline
Description: In these conditioning experiments which operate in the presence of a food reward, performed in rats according to the method described by MacMillan in Fed. Proceedings, 1975, 34, (9), p. 1870-1879, two parameters in the animal's behavioral responses are considered. The first parameter is the variation in the level of punished responses, in the presence of an electric shock, under the influence of the treatment in comparison with the level of punished responses under the influence of physiological saline. The second parameter is the variation in the level of unpunished responses, without an electric shock, under the influence of the same treatment, in comparison with the level of unpunished responses when physiological saline is administered. A specific anxiolytic effect is established when, after the administration of a substance, the level of only the punished responses is increased.

[7] = Anxiolytic activity by the "staircase" test; parameters: key to % variation in the steps climbed: NS: not significant; conditions: rats
Description: The anxiolytic activity of the compounds of the invention was investigated in rats according to the method described by Thiebot, Soubrie and Boissier in J. Pharmacol. 1976, 7, (1), p. 87-102. In this test, behavior involving rearing movements is associated with a state of distress of the animal. The number of steps climbed represents the normal exploratory behavior of the rat introduced into the enclosure. Normally, an efficacious anxiolytic compound should decrease, during the test which lasts 3 minutes, the number of rearing movements without modifying the number of steps climbed, or on the contrary should increase this latter parameter.

For Cc1ccccc1N1CCN(CCCN2C(=O)CN(Cc3ccccn3)CC2=O)CC1.Cl.Cl.Cl [Example 19, 4-(2-Pyridylmethyl)-1-{3-[1-(2-methylphenyl)-4-piperazinyl]propyl}-2,6-piperazinedione trihydrochloride], the “% ICAR (percentage inhibition of the conditioned avoidance response)” value ([1]; 20 mg.kg^-1) was 26%, the “% ICAR (percentage inhibition of the conditioned avoidance response)” value ([1]; 40 mg.kg^-1) was 73% and the ED50 [2] was 6.78 mg/kg.
For O=C(O)C(=O)O.O=C(O)C(=O)O.O=C1CN(Cc2ccccn2)CC(=O)N1CCCN1CCN(c2cccc(C(F)(F)F)c2)CC1 [Example 21, 4-(2-Pyridylmethyl)-1-{3-[1-(3-trifluoromethylphenyl)-4-piperazinyl]propyl}-2,6-piperazinedione dioxalate], the “% of non-killer animals” value ([3]; i.p., 12,5 mg.kg^-1) was 73%, the change in vivo at 5 mg/kg [4] was 69% and the ED50 [2] was 11.1 mg/kg.
With O=C1CN(Cc2ccccc2F)CC(=O)N1CCCN1CCN(c2cccc(C(F)(F)F)c2)CC1 [Example 1, 4-(2-Fluorobenzyl)-1-{3-[1-(3-trifluoromethylphenyl)-4-piperazinyl]propyl}-2,6-piperazinedione dimandelate] the “increase in the punished responses” value ([5]; 2.5 mg.kg^-1) was 39%, the “% variation in the unpunished responses” value ([6]; NS (not significant)) was “+18%” and the “% variation in the punished responses” value ([6]; S (significant)) was “+49%”. For the same molecule, the “% of non-killer animals” value ([3]; i.p., 25 mg.kg^-1) was 45%, the change in vivo at 5 mg/kg [4] was 65% and the “% increase in the responses” value ([4]; p.o., 50 mg.kg^-1) was 64%. For the same molecule, the ED50 [2] was 7.64 mg/kg, the “% variation in the rearing movements” value ([7]; i.p., 10 mg.kg^-1) was -39% and the “% variation in the steps climbed” value ([7]; i.p., 10 mg.kg^-1) was “NS”. The “% variation in the rearing movements” value ([7]; i.p., 20 mg.kg^-1) was -64%, the “% variation in the steps climbed” value ([7]; i.p., 20 mg.kg^-1) was “NS” and the “% variation in the rearing movements” value ([7]; i.p., 2,5 mg.kg^-1) was -20%. For the same molecule, the “% variation in the steps climbed” value ([7]; i.p., 2,5 mg.kg^-1) was “NS”.
With O=C1CN(Cc2ccccc2F)CC(=O)N1CCCN1CCN(c2cccc(Cl)c2)CC1 [Example 2, 4-(2-Fluorobenzyl)-1-{3-8 1-(3-chlorophenyl)-4-piperazinyl]propyl}-2,6-piperazinedione dimandelate] the “increase in the punished responses” value ([5]; 5.0 mg.kg^-1) was 65%.
For O=C1CN(Cc2ccccc2)CC(=O)N1CCCN1CCN(c2ccc(F)cc2)CC1 [Example 9, 4-Benzyl-1-{3-[1-(4-fluorophenyl)-4-piperazinyl]propyl}-2,6-piperazinedioneoxalate], the “% of non-killer animals” value ([3]; i.p., 25 mg.kg^-1) was 60% and the ED50 [2] was 8.6 mg/kg.

From patent US4820707A, “2,6-piperazinedione compounds” (ADIR Et Cie, priority 1986, dated 1989)
